Residues, ends and D or L forms follow the SMILES beside them. *: point of attachment. Cbz = O=C(OCc1ccccc1)*
Tests used:
[1] = test system: HT-29 cells; assay: KLF4 mRNA (RT-PCR) in HT-29 cells; format: cell-based, human
Description: SW480 and HT29 colon cancer cells were treated either with vehicle (DMSO) or indicated compounds and after 24 hr total RNA was extracted using RNeasy Mini kit (Qiagen, Inc., Valencia, Calif.). RNA concentration was measured by UV 260:280 nm absorption ratio and 2 μg RNA was used to synthesize cDNA using Reverse Transcription System (Promega). PCR conditions were as follows: initial denaturation at 94° C. (1 min) followed by 28 cycles of denaturation for 30 s at 94° C., annealing for 60 s at 55° C. and extension at 72° C. for 60 s and a final extension step at 72° C. for 5 min. The mRNA levels were normalized using GAPDH as an internal housekeeping gene. Primers obtained from IDT and used for amplification are as follows: KLF4 (sense 5′-CTATGGCAGGGAGTCCGCTCC-3′ (SEQ ID NO: 1); antisense 5′-ATGACCGACGGGCTGCCGTAC-3′ (SEQ ID NO: 2)) and GAPDH (sense 5′-ACGGATTTGGTCGTATTGGGCG-3′ (SEQ ID NO: 3); antisense 5′-CTCCTGGAAGATGGTGATGG-3′ (SEQ ID NO: 4). PCR products were electrophoresed on 1% agarose gels containing ethidium bromide and visualized under UV transillumination.

[2] = target: T1, PPARγ (Homo sapiens, UniProt P37231); assay: Mammalian two-hybrid assay (VP-PPARγ / GAL4-coactivator) in SW480 cells; format: cell-based
T1 construct: containing the DEF region of the PPARγ (amino acids 183-505) fused to the pVP16 expression vector; expressed in transfected cells; host or cells: SW480 colon cancer cells; plasmid provided by Dr. Shigeaki Kato (University of Tokyo)
T1 sequence (P37231 183-505): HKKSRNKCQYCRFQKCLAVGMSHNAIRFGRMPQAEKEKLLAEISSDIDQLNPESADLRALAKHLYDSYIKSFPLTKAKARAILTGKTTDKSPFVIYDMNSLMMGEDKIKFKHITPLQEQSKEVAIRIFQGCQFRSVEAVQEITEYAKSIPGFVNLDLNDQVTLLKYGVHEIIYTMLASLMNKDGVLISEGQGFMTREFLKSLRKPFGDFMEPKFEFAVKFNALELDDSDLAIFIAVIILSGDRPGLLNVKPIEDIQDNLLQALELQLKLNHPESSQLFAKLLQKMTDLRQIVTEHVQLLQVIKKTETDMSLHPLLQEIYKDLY
Description: The GAL4 reporter construct containing 5×GAL4 response elements (p GAL4) was provided by Dr. Marty Mayo (University of […], Chapel Hill, N.C.). The GAL4-coactivator fusion plasmids pM-SRC1, pMSRC2, pMSRC3, pM-DRIP205, pM-CARM-1 and PPARγ-VP16 fusion plasmid (Vp-PPARγ) containing the DEF region of the PPARγ (amino acids 183-505) fused to the pVP16 expression vector were provided by Dr. Shigeaki Kato (University of Tokyo, Tokyo, Japan). SW480 colon cancer cells were plated in 12-well tissue culture plates at 1×10^5 cells per well in DMEM/Ham's F-12 medium supplemented with 2.5% charcoal stripped FBS.
After allowing them to adhere overnight, transient transfections were carried out with GAL4-Luc (0.4 μg), β-GAL (0.04 μg), VP-PPARγ (0.04 μg), pM-SRC1 (0.04 μg), pM-PGC-1 (0.04 μg), pM-SMRT (0.04 μg), pM-TRAP220 (0.04 μg), pM-DRIP205 (0.04 μg), and pMCARM1 (0.04 μg) using LipofectAMINE2000 (Invitrogen) following the manufacturer's guidelines. After 6 hr of transfection, cells were treated in triplicate either with vehicle (DMSO) or the indicated compound suspended in complete medium for 20-24 hr. One hundred μL per well of 1× Reporter Lysis Buffer (Promega) was used to lyse the cells and 30 μl of this lysate was used to perform the luciferase and β-GAL assays using Lumicount (Perkin-Elmer Life and Analytical Sciences, Boston, Mass.). The luciferase activities obtained were normalized to the β-gal activity.

[3] = test system: LNCaP cells; assay: Western blot analysis of protein expression in LNCaP cells; format: cell-based, Human; conditions: 10 μM, compound alone
Description: Human carcinoma cell lines LNCaP (prostate) and SK-MEL2 (melanoma) were obtained from American Type Culture Collection (Manassas, Va.). Cell lines were maintained in RPMI 1640 (Sigma) supplemented with 0.22% sodium bicarbonate, 0.011% sodium pyruvate, 0.45% glucose, 0.24% HEPES, 10% FBS, and 10 mL/L of 100× Antibiotic Antimycotic solution (Sigma). Cells were maintained at 37° C. in the presence of 5% CO2.
An equal amount of cell lysate (60 μg/well) was separated by 7.5% to 12% SDS-PAGE, which was followed by immunoblotting onto polyvinylidene difluoride (Bio-Rad, Hercules, Calif.). After blocking in TBST-Blotto (10 mmol/L Tris-HCl, 150 mmol/L NaCl (pH 8.0), 0.05% Triton X-100, 5% nonfat dry milk) for 30 min, the membranes were incubated with primary antibodies overnight at 4° C. and then with horseradish peroxidase-conjugated secondary antibody for 2 hr at room temperature. Proteins were visualized using the chemiluminescence substrate (Perkin-Elmer Life Sciences) for 1 min and exposed to Kodak X-OMAT AR autoradiography film (Eastman Kodak, Rochester, N.Y.).

[4] = test system: HT-29 cells; conditions: HT-29, earlier reports; cited from earlier work
[5] = test system: SW480 cells; conditions: SW480, earlier reports; cited from earlier work
[6] = test system: SW480 cells; conditions: SW480, reference [9]; cited from earlier work

Row | SMILES | caveolin-1 induction [4] | caveolin-1 induction [5] | also measured
1 | COC(=O)[C@@]1(C)CCC2(C)CC[C@]3(C)C(=CC(=O)[C@@H]4C5(C)C=C(C#N)C(=O)C(C)(C)[C@@H]5CCC43C)C2C1 (stereo partly drawn) [β-CDODA-Me, Methyl 2-cyano-3,12-dioxo-18β-olean-1,12-diene-30-oic Acid, reference compound] | – | – | effect of T007 on induction of KLF4 mRNA ([1]; HT-29, cotreatment with T007): decreased significantly; part of induced KLF4 mRNA response inhibited by T007 ([1]; cotreatment with T007): 60-80%; luciferase activity, VP-PPARγ with GAL4 PGC-1 and GAL4 SRC-1 [2]: significantly induced luciferase activity
2 | CC(C)C[C@@H](C=O)NC(=O)[C@H](CC(C)C)NC(=O)[C@H](CC(C)C)NC(=O)OCc1ccccc1 [MG132] (Cbz-Leu-Leu-Leu-aldehyde) | – | – | PARP cleavage [3]: induced caspase-dependent cleavage of PARP
3 | CC1(C)C(=O)C(C#N)=C[C@]2(C)[C@H]3C(=O)C=C4[C@@H]5C[C@@](C)(C(=O)O)CC[C@]5(C)CC[C@@]4(C)[C@]3(C)CC[C@@H]12 [β-CDODA] | induced caveolin-1 | – | –
4 | COC(=O)[C@@]1(C)CC[C@]2(C)CC[C@]3(C)C(=CC(=O)[C@@H]4[C@@]5(C)C=C(C#N)C(=O)C(C)(C)[C@@H]5CC[C@]43C)[C@H]2C1 [α-CDODA-Me] | inducing caveolin-1 | inducing caveolin-1 | KLF4 mRNA [6]: enhanced KLF4 mRNA
5 | CC1(C)CC[C@]2(C(=O)O)CC[C@]3(C)[C@H](C(=O)C=C4[C@@]5(C)C=C(C#N)C(=O)C(C)(C)[C@@H]5CC[C@]43C)[C@@H]2C1 [CDDO] | inducing caveolin-1 | inducing caveolin-1 | –

From patent publication US20090203661A1, “Betulinic acid, derivatives and analogs thereof and uses therefor” (priority 2006, published 2009)
